Measurements: paper PMC5642495, “Characterization of a novel androgen receptor (AR) coregulator RIPK1 and related chemicals that suppress AR-mediated prostate cancer growth via peptide and chemical screening” (Oncotarget, 2017)

How the values were obtained:
AR N-C interaction = molecular target: T1, AR N-C interaction (Homo sapiens, UniProt P10275); experiment: AR N-C interaction reporter assay in PC-3 cells; assay type: cell-based; settings: 10 nM DHT, Figure 6A
T1 construct: pCDNA3-hAR-C (residues 556–919); expressed in transfected cells; host or cells: PC-3
T1 sequence (P10275 556-919): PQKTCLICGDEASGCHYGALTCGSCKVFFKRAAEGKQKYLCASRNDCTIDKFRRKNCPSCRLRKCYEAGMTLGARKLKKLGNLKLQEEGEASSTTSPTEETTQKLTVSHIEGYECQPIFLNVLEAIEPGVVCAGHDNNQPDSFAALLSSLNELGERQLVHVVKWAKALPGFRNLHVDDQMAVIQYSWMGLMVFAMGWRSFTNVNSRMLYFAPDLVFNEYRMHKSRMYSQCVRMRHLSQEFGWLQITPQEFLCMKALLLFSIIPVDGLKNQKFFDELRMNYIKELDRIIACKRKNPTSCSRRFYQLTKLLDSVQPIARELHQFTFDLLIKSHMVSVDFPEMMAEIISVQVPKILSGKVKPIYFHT
Experimental: (§1) Figure 6 Mechanism underlying suppression of AR-related functions by oxadiazole derivatives (A–C) Transcriptional activity in reporter assays. PC-3 cells in 24-well plates were transfected as indicated below. After incubation for 16 h, cells were treated with ethanol, 10 nM DHT, or 0.01–10 μM HWC-489 or LHJ-647 for an additional 16 h. Luciferase activity in cell lysates was determined and normalized to protein concentrations. Relative luciferase activity was calculated using the luciferase reporter assay system. (A) PC-3 cells were co-transfected with 350 ng pCDNA3-flag-hAR-N (residues 1–506), 350 ng pCDNA3-hAR-C (residues 556–919), and 300 ng MMTV-Luc plasmids. (B) PC-3 cells were co-transfected with 350 ng GAL4-DBD-3-18, 350 ng pCMX-VP16-AR, and 300 ng pG5-Luc plasmids. (C) PC-3 cells were transfected with 350 ng GAL4-DBD-ARA54C, 350 ng VP16-AR, and 300 ng pG5-Luc plasmids. (D) LHJ-647 promotes AR protein degradation.

AR-peptide interaction = molecular target: T2, AR-peptide interaction (Homo sapiens, UniProt P10275); experiment: AR-peptide interaction reporter assay (GAL4-DBD-3-18 / VP16-AR) in PC-3 cells; assay type: cell-based; settings: 10 nM DHT, Figure 6B
T2 construct: expressed in transfected cells; host or cells: PC-3
T2 sequence (P10275 1-920): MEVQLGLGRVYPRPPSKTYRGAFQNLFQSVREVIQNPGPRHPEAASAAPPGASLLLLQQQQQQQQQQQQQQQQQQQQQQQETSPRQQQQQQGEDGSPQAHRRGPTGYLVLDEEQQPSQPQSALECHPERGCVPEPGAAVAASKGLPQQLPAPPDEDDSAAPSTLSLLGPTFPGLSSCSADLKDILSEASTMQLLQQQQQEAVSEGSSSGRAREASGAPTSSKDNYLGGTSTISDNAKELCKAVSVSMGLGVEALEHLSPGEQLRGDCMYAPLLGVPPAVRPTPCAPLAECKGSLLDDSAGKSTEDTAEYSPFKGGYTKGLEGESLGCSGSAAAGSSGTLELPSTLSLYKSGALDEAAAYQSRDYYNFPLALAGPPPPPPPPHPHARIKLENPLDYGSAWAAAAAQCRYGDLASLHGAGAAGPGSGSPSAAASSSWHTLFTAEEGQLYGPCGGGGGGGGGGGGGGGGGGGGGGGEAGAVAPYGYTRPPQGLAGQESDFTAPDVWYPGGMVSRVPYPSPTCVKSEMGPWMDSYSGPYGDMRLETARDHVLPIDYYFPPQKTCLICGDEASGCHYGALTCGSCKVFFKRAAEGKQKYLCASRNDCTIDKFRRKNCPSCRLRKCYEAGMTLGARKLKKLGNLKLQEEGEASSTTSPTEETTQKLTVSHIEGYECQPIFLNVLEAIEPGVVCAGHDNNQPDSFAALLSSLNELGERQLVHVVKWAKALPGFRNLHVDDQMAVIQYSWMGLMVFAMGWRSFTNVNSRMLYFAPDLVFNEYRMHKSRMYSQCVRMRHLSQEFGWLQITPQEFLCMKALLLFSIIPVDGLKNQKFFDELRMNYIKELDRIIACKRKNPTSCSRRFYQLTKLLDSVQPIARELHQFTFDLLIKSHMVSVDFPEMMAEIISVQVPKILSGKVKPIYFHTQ
Experimental: as §1

AR-cofactor interaction = molecular target: T3, AR-cofactor interaction (Homo sapiens, UniProt P10275); experiment: AR-cofactor interaction reporter assay (GAL4-DBD-ARA54C / VP16-AR) in PC-3 cells; assay type: cell-based; settings: 10 nM DHT, Figure 6C
T3 construct: expressed in transfected cells; host or cells: PC-3
T3 sequence (P10275 1-920): T2 sequence (P10275 1-920)
Experimental: as §1

NOD/SCID mice = experiment: treatment toxicity monitoring in xenograft mice; assay type: in vivo; settings: for changes in body weight, clinical signs and gross morphology: during the study period; for mouse mortality: in vivo
Experimental: All experiments involving laboratory animals were conducted in accordance with the Guidelines for Animal Experiments of Chang Gung Memorial Hospital and approved by the Animal Research Committee at the hospital. LNCaP cells were harvested, washed twice with phosphate-buffed saline, and resuspended at a final concentration of 5 × 10^6 cells/mL in Matrigel (BD Biosciences, San Jose, CA) containing basement membrane components. Next, 5 × 10^5 cells (100 μL per site) were subcutaneously injected into the flanks of 4–6 week-old male NOD/SCID mice (BioLASCO, Taiwan). Tumor development was confirmed within 2–3 weeks after injection of the same number of cell subclones. Treatment with different chemicals was initiated at the same time. Tumor dimensions were measured twice a week with calipers, and tumor volumes calculated using the formula: tumor volume (mm^3) = tumor length (mm) × [tumor width (mm)]^2 × 0.5. Three to five mice were used per group (with or without chemical treatment). Mice were sacrificed 4 weeks after chemical injection and tumors harvested for further analyses. For evaluation of treatment toxicity, animal mortality, changes in body weight, clinical signs and gross morphology were monitored during the experiment.

Structure (SMILES)	concentration range of significant suppression of AR N-C interaction (AR N-C interaction) [µM]	concentration range of significant suppression of AR-peptide interaction (AR-peptide interaction) [µM]	concentration range of significant suppression of AR-cofactor interaction (AR-cofactor interaction) [µM]	changes in body weight, clinical signs and gross morphology (NOD/SCID mice)	mouse mortality (NOD/SCID mice)
Cc1ccc(-c2nnc(Nc3ccccc3)o2)cc1 [HWC-489]	0.1 to 1	0.1 to 1	0.1 to 1	no significant alterations	No mouse mortality was observed
COc1cccc(Nc2nnc(-c3ccc(N(C)C)cc3)o2)c1 [LHJ-647]	0.1 to 1	0.1 to 1	0.1 to 1	no significant alterations	No mouse mortality was observed
